# Measured values: ChEMBL document CHEMBL1150783, “In vitro activities of CG400549, a novel FabI inhibitor, against recently isolated clinical staphylococcal strains in Korea” (2007)
# Activity calls are given as the source filed them. The calls are words filed in the database; no cut-off is given here.
# Legend:
# [1] = tested on: Staphylococcus simulans; experiment: Antibacterial activity against methicillin-susceptible coagulase-negative Staphylococcus simulans by CLSI dilution method; format: functional
# [2] = tested on: Staphylococcus haemolyticus; experiment: Antibacterial activity against methicillin-susceptible coagulase-negative Staphylococcus haemolyticus by CLSI dilution method; format: functional
# [3] = tested on: Staphylococcus hominis; experiment: Antibacterial activity against methicillin-susceptible coagulase-negative Staphylococcus hominis by CLSI dilution method; format: functional
# [4] = tested on: Staphylococcus epidermidis; experiment: Antibacterial activity against methicillin-susceptible coagulase-negative Staphylococcus epidermidis by CLSI dilution method; format: functional
# [5] = tested on: Streptococcus; experiment: Antibacterial activity against Streptococcus by CLSI dilution method; format: functional, organism-based
# [6] = tested on: Enterococcus; experiment: Antibacterial activity against Enterococcus by CLSI dilution method; format: functional, organism-based
# [7] = tested on: Moraxella catarrhalis; experiment: Antibacterial activity against Moraxella catarrhalis by CLSI dilution method; format: functional, organism-based
# [8] = tested on: Listeria monocytogenes; experiment: Antibacterial activity against Listeria monocytogenes by CLSI dilution method; format: functional, organism-based
# [9] = tested on: Staphylococcus hominis; experiment: Antibacterial activity against methicillin-resistant coagulase-negative Staphylococcus hominis by CLSI dilution method; format: functional
# [10] = tested on: Nocardia sp.; experiment: Antibacterial activity against Nocardia sp. by CLSI dilution method; format: functional, organism-based
# [11] = tested on: Corynebacterium; experiment: Antibacterial activity against […] by CLSI dilution method; format: functional, organism-based
# [12] = tested on: Escherichia coli; experiment: Antibacterial activity against sEscherichia coli by CLSI dilution method; format: functional, organism-based
# [13] = tested on: Klebsiella pneumoniae; experiment: Antibacterial activity against Klebsiella pneumoniae by CLSI dilution method; format: functional, organism-based
# [14] = tested on: Enterobacter cloacae; experiment: Antibacterial activity against sEnterobacter cloacae by CLSI dilution method; format: functional, organism-based
# [15] = tested on: Citrobacter freundii; experiment: Antibacterial activity against Citrobacter freundii by CLSI dilution method; format: functional, organism-based
# [16] = tested on: Serratia marcescens; experiment: Antibacterial activity against Serratia marcescens by CLSI dilution method; format: functional, organism-based
# [17] = tested on: Morganella morganii; experiment: Antibacterial activity against Morganella morganii by CLSI dilution method; format: functional, organism-based
# [18] = tested on: Acinetobacter baumannii; experiment: Antibacterial activity against sAcinetobacter baumannii by CLSI dilution method; format: functional, organism-based
# [19] = tested on: Pseudomonas aeruginosa; experiment: Antibacterial activity against sPseudomonas aeruginosa by CLSI dilution method; format: functional, organism-based
# [20] = tested on: Aeromonas sp.; experiment: Antibacterial activity against Aeromonas sp. by CLSI dilution method; format: functional, organism-based
# [21] = tested on: Vibrio sp.; experiment: Antibacterial activity against Vibrio sp. by CLSI dilution method; format: functional, organism-based
# [22] = tested on: Haemophilus influenzae; experiment: Antibacterial activity against sHaemophilus influenzae by CLSI dilution method; format: functional, organism-based
# [23] = tested on: Campylobacter fetus; experiment: Antibacterial activity against Campylobacter fetus by CLSI dilution method; format: functional, organism-based
# [24] = tested on: Helicobacter pylori; experiment: Antibacterial activity against Helicobacter pylori by CLSI dilution method; format: functional, organism-based
# [25] = tested on: Neisseria gonorrhoeae; experiment: Antibacterial activity against Neisseria gonorrhoeae by CLSI dilution method; format: functional, organism-based
# [26] = tested on: Staphylococcus aureus; experiment: Antibacterial activity against methicillin-resistant Staphylococcus aureus by CLSI dilution method; format: functional
# [27] = tested on: Staphylococcus aureus; experiment: Antibacterial activity against methicillin-susceptible Staphylococcus aureus isolate by CLSI dilution method; format: functional
# [28] = tested on: Staphylococcus sp.; experiment: Antibacterial activity against methicillin-resistant coagulase-negative Staphylococcus sp. by CLSI dilution method; format: functional
# [29] = tested on: Staphylococcus sp.; experiment: Antibacterial activity against methicillin-susceptible coagulase-negative Staphylococcus sp. by CLSI dilution method; format: functional
# [30] = tested on: Staphylococcus haemolyticus; experiment: Antibacterial activity against methicillin-resistant coagulase-negative Staphylococcus haemolyticus by CLSI dilution method; format: functional
# [31] = tested on: Staphylococcus epidermidis; experiment: Antibacterial activity against methicillin-resistant coagulase-negative Staphylococcus epidermidis by CLSI dilution method; format: functional
# [32] = tested on: Staphylococcus saprophyticus; experiment: Antibacterial activity against methicillin-resistant coagulase-negative Staphylococcus saprophyticus by CLSI dilution method; format: functional
# [33] = tested on: Mammaliicoccus sciuri; experiment: Antibacterial activity against methicillin-resistant coagulase-negative Staphylococcus sciuri by CLSI dilution method; format: functional
# [34] = tested on: Staphylococcus aureus; experiment: (§1) Antibacterial activity against methicillin-resistant Staphylococcus aureus isolate assessed as percent resistant isolates by CLSI dilution method; format: functional
# [35] = tested on: Staphylococcus aureus; experiment: Antibacterial activity against methicillin-susceptible Staphylococcus aureus isolate assessed as […] isolates by CLSI dilution method; format: functional
# [36] = tested on: Staphylococcus aureus; experiment: as §1; format: functional; remark: listed apart in the source
# [37] = tested on: Staphylococcus sp.; experiment: (§2) Antibacterial activity against methicillin-susceptible coagulase-negative Staphylococcus sp. assessed as percent susceptible isolates by CLSI dilution method; format: functional
# [38] = tested on: Staphylococcus sp.; experiment: Antibacterial activity against methicillin-resistant coagulase-negative Staphylococcus sp. assessed as percent resistant isolates by CLSI dilution method; format: functional
# [39] = tested on: Staphylococcus sp.; experiment: as §2; format: functional; remark: listed apart in the source
# [40] = tested on: Staphylococcus sp.; experiment: Antibacterial activity against methicillin-susceptible coagulase-negative Staphylococcus sp. assessed as percent resistant isolates by CLSI dilution method; format: functional
# [41] = tested on: Staphylococcus aureus; experiment: Antibacterial activity against methicillin-resistant Staphylococcus aureus isolate assessed as percent susceptible isolates by CLSI dilution method; format: functional
structure (smiles),measurement,setting,value
Cc1c(N)cccc1Cn1ccc(OCCc2cccs2)cc1=O [CG-400549],MIC,[1],4 µg/mL
same,MIC,[2],2 µg/mL
same,MIC,[3],4 µg/mL
same,MIC,[4],8 µg/mL
same,Activity,[5],Active
same,Activity,[6],Active
same,Activity,[7],Active
same,Activity,[8],Active
same,MIC,[9],4 µg/mL
same,Activity,[10],Active
same,Activity,[11],Active
same,Activity,[12],Active
same,Activity,[13],Active
same,Activity,[14],Active
same,Activity,[15],Active
same,Activity,[16],Active
same,Activity,[17],Active
same,Activity,[18],Active
same,Activity,[19],Active
same,Activity,[20],Active
same,Activity,[21],Active
same,Activity,[22],Active
same,Activity,[23],Active
same,Activity,[24],Active
same,Activity,[25],Active
same,MIC50,[26],0.5 µg/mL
same,MIC90,[26],0.5 µg/mL
same,MIC50,[27],0.5 µg/mL
same,MIC90,[27],0.5 µg/mL
same,MIC50,[28],0.5 µg/mL
same,MIC90,[28],4 µg/mL
same,MIC50,[29],0.5 µg/mL
same,MIC90,[29],8 µg/mL
same,MIC,[30],2 µg/mL
same,MIC,[31],4 µg/mL
same,MIC,[32],8 µg/mL
same,MIC,[33],4 µg/mL
C[C@H]1COc2c(N3CCN(C)CC3)c(F)cc3c(=O)c(C(=O)O)cn1c23.C[C@H]1COc2c(N3CCN(C)CC3)c(F)cc3c(=O)c(C(=O)O)cn1c23.O [LEVOFLOXACIN],Activity,[34],93%
same,Activity,[35],100%
same,Activity,[36],0%
same,Activity,[37],35%
same,Activity,[38],60%
same,Activity,[39],100%
same,Activity,[40],0%
same,Activity,[41],7%
same,MIC50,[26],16 µg/mL
same,MIC90,[26],> 128 µg/mL
same,MIC50,[27],0.25 µg/mL
same,MIC90,[27],0.5 µg/mL
same,MIC50,[28],4 µg/mL
same,MIC90,[28],32 µg/mL
same,MIC50,[29],0.25 µg/mL
same,MIC90,[29],0.25 µg/mL
Cc1onc(-c2ccccc2)c1C(=O)N[C@@H]1C(=O)N2[C@@H]1SC(C)(C)[C@@H]2C(=O)O [OXACILLIN],Activity,[34],100%
same,Activity,[35],100%
same,Activity,[36],0%
same,Activity,[37],0%
same,Activity,[38],100%
same,Activity,[39],100%
same,Activity,[40],0%
same,Activity,[41],0%
same,MIC50,[26],> 128 µg/mL
same,MIC90,[26],> 128 µg/mL
same,MIC50,[27],0.5 µg/mL
same,MIC90,[27],0.5 µg/mL
same,MIC50,[28],32 µg/mL
same,MIC90,[28],> 128 µg/mL
same,MIC50,[29],0.12 µg/mL
same,MIC90,[29],0.25 µg/mL
CC(=O)NC[C@H]1CN(c2ccc(N3CCOCC3)c(F)c2)C(=O)O1 [LINEZOLID],Activity,[35],100%
same,Activity,[37],100%
same,Activity,[39],100%
same,Activity,[41],100%
same,MIC50,[26],2 µg/mL
same,MIC90,[26],2 µg/mL
same,MIC50,[27],4 µg/mL
same,MIC90,[27],4 µg/mL
same,MIC50,[28],1 µg/mL
same,MIC90,[28],2 µg/mL
same,MIC50,[29],1 µg/mL
same,MIC90,[29],2 µg/mL
